Test results from publication PMC11040327 (RSC Advances, 2024).
Read-outs that look alike come from different tables or passages of the source.

What was measured:
HCT-116 cells [1] = assay: MTT cytotoxicity assay against HCT-116 cells; assay type: cell-based
VEGFR2 = VEGFR2 (Homo sapiens, UniProt P35968); assay: VEGFR2 kinase inhibition assay; assay type: biochemical; conditions: for inhibition at 10 µM: read-out: VEGFR2 % Of inhibition at [10 μM], 10 μM compound
HCT-116 cells [2] = assay: Annexin V/PI flow cytometry for apoptosis in HCT-116 cells; assay type: cell-based; conditions: treated at IC50 for 48 h
[3] = Homo sapiens, HCT-116, 48 h, read-out: IC50 (μM) ± SD, cytotoxicity against HCT-116 cells, HCT-116 cells, MTT assay, 48 h, three independent trials

Chain of VEGFR2 (P35968 20-1356): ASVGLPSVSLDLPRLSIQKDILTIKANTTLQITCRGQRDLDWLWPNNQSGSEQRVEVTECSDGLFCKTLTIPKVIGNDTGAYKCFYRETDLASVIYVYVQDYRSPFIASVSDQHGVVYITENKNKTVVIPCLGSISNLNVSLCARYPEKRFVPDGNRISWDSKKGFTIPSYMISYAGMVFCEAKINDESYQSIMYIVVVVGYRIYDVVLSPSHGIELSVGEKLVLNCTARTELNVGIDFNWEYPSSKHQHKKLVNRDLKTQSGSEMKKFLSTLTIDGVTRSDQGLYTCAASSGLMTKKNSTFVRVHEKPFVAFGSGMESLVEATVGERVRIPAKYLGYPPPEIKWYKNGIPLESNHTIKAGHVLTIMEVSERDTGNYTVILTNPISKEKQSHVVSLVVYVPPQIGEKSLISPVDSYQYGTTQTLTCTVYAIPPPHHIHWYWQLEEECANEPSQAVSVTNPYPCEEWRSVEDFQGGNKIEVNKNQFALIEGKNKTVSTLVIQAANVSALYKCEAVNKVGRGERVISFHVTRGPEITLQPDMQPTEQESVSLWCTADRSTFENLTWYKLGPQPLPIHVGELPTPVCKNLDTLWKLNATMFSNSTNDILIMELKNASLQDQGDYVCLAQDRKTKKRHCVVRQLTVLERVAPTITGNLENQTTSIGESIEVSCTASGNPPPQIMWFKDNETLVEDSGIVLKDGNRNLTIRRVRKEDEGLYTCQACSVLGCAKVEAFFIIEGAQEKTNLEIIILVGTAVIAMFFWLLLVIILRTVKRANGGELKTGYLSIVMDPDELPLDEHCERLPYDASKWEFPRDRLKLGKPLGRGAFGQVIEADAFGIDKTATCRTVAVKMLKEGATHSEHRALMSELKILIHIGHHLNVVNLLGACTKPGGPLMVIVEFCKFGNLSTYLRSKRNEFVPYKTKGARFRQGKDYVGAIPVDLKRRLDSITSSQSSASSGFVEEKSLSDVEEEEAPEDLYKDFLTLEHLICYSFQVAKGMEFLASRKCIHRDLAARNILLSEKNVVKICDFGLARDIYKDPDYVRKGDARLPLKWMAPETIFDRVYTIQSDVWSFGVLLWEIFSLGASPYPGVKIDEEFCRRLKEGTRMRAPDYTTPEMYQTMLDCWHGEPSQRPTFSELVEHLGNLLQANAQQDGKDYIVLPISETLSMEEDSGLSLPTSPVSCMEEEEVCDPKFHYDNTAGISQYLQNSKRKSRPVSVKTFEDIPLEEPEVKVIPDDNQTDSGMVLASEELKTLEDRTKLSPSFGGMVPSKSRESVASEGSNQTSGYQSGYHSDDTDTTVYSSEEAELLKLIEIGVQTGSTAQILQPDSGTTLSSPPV

Structure (SMILES)	IC50 (HCT-116 cells [1]; [3])	further results
COc1ccc(/C=N\NC(=O)CNC(=O)CCn2nc(Cc3ccccc3)c3ccccc3c2=O)cc1 [Compound 13c, (Z)-3-(4-benzyl-1-oxophthalazin-2(1H)-yl)-N-(2-(2-(4-methoxybenzylidene) hydrazinyl)-2-oxoethyl)propanamide]	0.64 ± 0.05 µM	VEGFR2 % Of inhibition at [10 μM] (VEGFR2; 10 μM compound, 10 µM): 96.4 ± 2.8%; IC50 (VEGFR2; VEGFR2 IC50 [nM] ± SD, five concentrations, three replicates): 19.8 ± 0.6 nM; inhibition at 10 µM (VEGFR2): 95.2%
NNC(=O)CCn1nc(Cc2ccccc2)c2ccccc2c1=O [Compound 5, 3-(4-benzyl-1-oxophthalazin-2(1H)-yl) propanehydrazide]	13.8 ± 0.2 µM	–
CNC(=O)c1cc(Oc2ccc(NC(=O)Nc3ccc(Cl)c(C(F)(F)F)c3)cc2)ccn1 [Sorafenib, reference compound]	2.93 µM	IC50 (HCT-116 cells [1]; read-out: IC50 (μM) ± SD, cytotoxicity against HCT-116 cells, HCT-116 cells, MTT assay, 48 h, three independent trials): 3.23 ± 0.03 µM
C=CCNC(=O)CCn1nc(Cc2ccccc2)c2ccccc2c1=O [Compound 7a, N-allyl-3-(4-benzyl-1-oxophthalazin-2(1H)-yl)propanamide]	34.8 ± 1.9 µM	–
O=C(CCn1nc(Cc2ccccc2)c2ccccc2c1=O)N1CCOCC1 [Compound 7b, 4-benzyl-2-(3-morpholino-3-oxopropyl) phthalazin-1(2H)-one]	24.3 ± 1.5 µM	–
CCCCNC(=O)CCn1nc(Cc2ccccc2)c2ccccc2c1=O [Compound 7f, 3-(4-benzyl-1-oxophthalazin-2(1H)-yl)-N-butylpropanamide]	18.8 ± 0.6 µM	–
O=C(CCn1nc(Cc2ccccc2)c2ccccc2c1=O)NCC(=O)N/N=C\c1ccc([N+](=O)[O-])cc1 [Compound 13a, (Z)-3-(4-benzyl-1-oxophthalazin-2(1H)-yl)-N-(2-(2-(4-nitrobenzylidene) hydrazinyl)-2-oxoethyl)propanamide]	45.7 ± 1.8 µM	–
O=C(CCn1nc(Cc2ccccc2)c2ccccc2c1=O)N1CCCCC1 [Compound 7d, 4-benzyl-2-(3-oxo-3-(piperidin-1-yl)propyl) phthalazin-1(2H)-one]	–	apoptosis induction, fold versus untreated cells (HCT-116 cells [2]): 23.6 fold; inhibition at 10 µM (VEGFR2): 97.6%
